In US20250381210A1, “METHODS OF TREATING VASCULAR DEMENTIA” (The Regents of the University of California, priority 2024, published 2025):

Columns and labels:
[1] = recent phase III clinical trials for psoriasis; cited from earlier work
[2] = tested on: VaD mouse model; experiment: Novel Object Recognition (NOR) test after delayed piclidenoson treatment; type: in vivo; conditions: delayed treatment from 5 days after VaD induction, legend: one sample paired t test compared to 50%
Procedure: VaD in the mouse was modified from white matter stroke model. Briefly, the mice were anesthetized with 2% isoflurane and securely mounted onto a stereotaxic apparatus. Core body temperature of the mice was maintained at 36.5 to 37.5° C. A midline incision was made down the scalp, and a craniotomy was performed with a dental drill. A Nanoliter injector (World Precision Instruments) was used to infuse 27 μg/μL of L-NIO (Sigma-Aldrich, 400-600) in sterile saline (Hospira) with Micro4 Controller injector (World Precision Instruments), at the speed of 100 nL/min. To avoid damage to motor cortex, the glass pipette (Wrld Precision Instruments, 1B100F-4) containing the L-NIO was inserted through the cortex of the frontal lobe into the underlying subcortical WM at an angle of 36°. Three injections (each of 0.3 μL of L-NIO solution) were made in the following coordinates: AP +0.80 mm, ML +2.00 mm, DV −1.56 mm; AP +0.80 mm, ML +2.83 mm, DV −1.60 mm; and AP +0.80 mm, ML +3.66 mm, DV −1.61 mm. Localized vasoconstriction leads to focal ischemia in the subcortical WM. […] Osmotic mini-pumps (1002, 1004) were subcutaneously implanted and connected to right lateral ventricle through brain infusion kit 3 (Alzet). The brain infusion kits were fixed onto the skull with super glue (Loctite, 45198). […] All tests were performed 3-4 weeks after VaD. […] For NOR, the testing mice were allowed to explore an open field arena (30 cm×30 cm) with 2 identical objects for 12 min on the first day. Then the one object was replaced to a novel object and the mice were allowed to explore the 2 different objects for 8 min. The exploration was recorded and the time to explore each object was analyzed by ANY-maze. The data were presented as exploration ratio of time spent exploring the novel object versus both objects. For NOR, mice were habituated in an open field arena (41.5 cm×41.5 cm×41.5 cm) for 10 min. […] The exploration was recorded and the time to explore each object was analyzed by ANY-maze, and/or manually hand-scored. […]

[3] = tested on: A3AR; conditions: cited from earlier work
[4] = tested on: VaD mouse model; experiment: Delayed piclidenoson (5 days after VaD induction); lesion size, axon and myelin volume by immunostaining; type: in vivo; conditions: delayed treatment from 5 days after VaD induction, vs vehicle; for VaD lesion size: examined 3 weeks after treatment
Procedure: (§1) VaD in the mouse was modified from white matter stroke model. Briefly, the mice were anesthetized with 2% isoflurane and securely mounted onto a stereotaxic apparatus. Core body temperature of the mice was maintained at 36.5 to 37.5° C. A midline incision was made down the scalp, and a craniotomy was performed with a dental drill. A Nanoliter injector (World Precision Instruments) was used to infuse 27 μg/μL of L-NIO (Sigma-Aldrich, 400-600) in sterile saline (Hospira) with Micro4 Controller injector (World Precision Instruments), at the speed of 100 nL/min. To avoid damage to motor cortex, the glass pipette (Wrld Precision Instruments, 1B100F-4) containing the L-NIO was inserted through the cortex of the frontal lobe into the underlying subcortical WM at an angle of 36°. Three injections (each of 0.3 μL of L-NIO solution) were made in the following coordinates: AP +0.80 mm, ML +2.00 mm, DV −1.56 mm; AP +0.80 mm, ML +2.83 mm, DV −1.60 mm; and AP +0.80 mm, ML +3.66 mm, DV −1.61 mm. Localized vasoconstriction leads to focal ischemia in the subcortical WM. Female mice were excluded because estrogen is potentially preventative against ischemic stroke.
(§2) Immunostaining was performed by brain section blocking in 5% normal donkey serum for 1 hour at room temperature, incubating in primary antibody overnight at 4° C., and in secondary antibody for 1 hour at room temperature. For the performance using CD39 and Pdgfrβ antibodies, antigen retrieval using sodium citrate buffer ([…], pH 6.0), in pressure cooker for 3 min was applied before blocking. All sections were counterstained with 4′,6-diamidino-2-phenylindole (DAPI). The antibodies used in this study are listed below.
High-resolution confocal images in z-stacks were acquired (Nikon C2). Area measurements of the infarct core, WM axonal projections stained with NF160 and MBP were quantified with Imaris (Bitplane, version 10.0.0) using surface function; all the channels were threshold with the same absolute intensity against the background. The parameters for scanning were kept constant across treatment, and conditions.
(§3) • 1. Quantification of MBP and NF160 volume for FIGS. 26I, 28M, 28N. Imaris (Bitplane, version 10.0.0) using surface function; all the channels were threshold with the same absolute intensity against the background. Because the absolute volume of cerebral white matter varies between coronal slices depending on the coordinate along anterior-posterior axis, it is difficult to directly compare the absolute volume of NF160 or MBP between groups. The volume of ipsilateral white matter is very similar to the contralateral white matter, we first normalized the volume of NF160 or MBP at the ipsilateral side to the contralateral side (no lesion), and then compare the normalized value between groups. This may be a more reasonable way to investigate how the axon reprojection and myelin regrowth is changed by piclidenoson (CF101) treatment. For each animal, 4 slices, with 300 μm interval across the lesion core along the anterior-posterior axis, were quantified. • 2. Quantification of absolute core sizes (FIG. 16F). For each animal, all the slices that cover the lesion core were stained with MBP, NF160, DAPI, and GFAP. The area of core is defined as brain region with NF160/MBP debris, high density of DAPI, and GFAP boundary. The size of core area is measured in ImageJ. The absolute core size is defined by the sum of core area×the slice thickness from all slices. • 3. Quantification of relative core sizes (FIG. 28I, 28L). For each animal, 4 slices, with 300 μm interval across the lesion core along the anterior-posterior axis, were quantified using ImageJ. The relative core sizes were normalized by the average of vehicle treated group. • 4. Quantification of c-Fos cells (FIG. 16R, 16S, 28Q, 28R). For slices from prefrontal cortex, the number of c-Fos cells were quantified by Imaris using spots function, and normalized with the number of neurons (NeuN+) in the same region of interest (ROI). […]

[5] = tested on: VaD mouse model; experiment: Satb2 and Cux1 immunostaining in cortical Layer VI after delayed piclidenoson treatment; type: in vivo; conditions: motor somatosensory cortex
Procedure: as §1, §2
as §3, with “(ROI). For slices from hippocampus, the number of c-Fos cells were quantified by Imaris and normalized with the volume of ROI because it is difficult to normalize with the number of neurons due to compact pyramidal cell layer. The same quality threshold was used for all samples. • 5. Quantification of CD39 in human IHC (FIG. 28D, 28E).” for “(ROI).”

[6] = tested on: VaD mouse model; experiment: Grid walking task after delayed piclidenoson treatment; type: in vivo; conditions: three weeks post piclidenoson treatment
Procedure: as §1, with “stroke. Osmotic mini-pumps (1002, 1004) were subcutaneously implanted and connected to right lateral ventricle through brain infusion kit 3 (Alzet). The brain infusion kits were fixed onto the skull with super glue (Loctite, 45198). For 4-week treatment, 1004 mini-pumps were used to delivery 400 µM of piclidenoson (in 1% DMSO in saline) at the speed of 0.11 μL/h; For 2-week treatment, 1002 mini-pumps were used to deliver 200 μM of piclidenoson at the speed of 0.23 μL/h. For Grid walking test, the mice were tested 1-day pre-, 7-day, 30-day, and 60-day post-VaD in progressiveness investigation, and 1-day pre-, 4-day and 21-day post-VaD in piclidenoson treatment study. Behavior tests were scored by observers who were masked to the treatment group of the animals.” for “stroke.”

[7] = tested on: VaD mouse model; experiment: Acute piclidenoson, infusion into lateral ventricle 30-min after VaD induction; lesion size and BBB leakage by immunostaining; type: in vivo; conditions: acute administration 30-min post stroke, for 1-2 weeks, direct infusion into lateral ventricle, vs vehicle
Procedure: as §1, §2
High-resolution confocal images in z-stacks were acquired (Nikon C2). Area measurements of the infarct core, WM axonal projections stained with NF160 and MBP were quantified with Imaris (Bitplane, version 10.0.0) using surface function; all the channels were threshold with the same absolute intensity against the background. […]
• 1. Quantification of MBP and NF160 volume for FIGS. 26I, 28M, 28N. […] For each animal, 4 slices, with 300 μm interval across the lesion core along the anterior-posterior axis, were quantified. • 2. Quantification of absolute core sizes (FIG. 16F). […] The size of core area is measured in ImageJ. […] Quantification of relative core sizes (FIG. 28I, 28L). For each animal, 4 slices, with 300 μm interval across the lesion core along the anterior-posterior axis, were quantified using ImageJ. […] Quantification of c-Fos cells (FIG. 16R, 16S, 28Q, 28R). For slices from prefrontal cortex, the number of c-Fos cells were quantified by Imaris using spots function, and normalized with the number of neurons (NeuN+) in the same region of interest (ROI). […]

[8] = tested on: VaD mouse model; experiment: c-Fos quantification in PFC (AC) and HPC (CA2/3) after delayed piclidenoson treatment; type: in vivo; conditions: VaD animals
Procedure: as §1, §2
as §3, with “(ROI). For slices from hippocampus, the number of c-Fos cells were quantified by Imaris and normalized with the volume of ROI because it is difficult to normalize with the number of neurons due to compact pyramidal cell layer. The same quality threshold was used for all samples. • 5. Quantification of CD39 in human IHC (FIG. 28D, 28E).” for “(ROI).”

CNC(=O)[C@H]1O[C@@H](n2cnc3c(NCc4cccc(I)c4)ncnc32)[C@H](O)[C@@H]1O [piclidenoson, 1-deoxy-1-[6-[(iodophenyl)methyl]amino]9H-purine-9-yl]-N-methyl-(-D-ribofuranuronamide]
safety in humans [1]: safely used in humans
NOR memory test, memory deficits (novel object preference) [2]: significantly reduced memory deficits
NOR memory test, memory deficits (novel object preference) ([2]; listed as CF101): significantly reduced memory deficits
NOR memory test, memory deficits (novel object preference) ([2]; listed as Pic): Con_Veh, Con_Pic, and VaD_Pic groups, *p<0.05
potency in A3AR action relative to A1AR and A2bAR ([3]; A3AR vs A1AR and A2bAR): 50 fold
non-specific effects on other adenosine receptors [3]: minimal non-specific effects on other adenosine receptors
VaD lesion size [4]: significant reduction of lesion size
VaD lesion size ([4]; listed as CF101): significant reduction of lesion size
VaD lesion size ([4]; listed as Pic): Veh vs Pic, *p<0.05
axon volume / axonal projections (NF160 immunostaining) [4]: not changed
myelin volume / markers of myelination (MBP immunostaining) in affected WM [4]: significantly increased
axon volume / axonal projections (NF160 immunostaining) ([4]; listed as CF101): not changed
myelin volume / markers of myelination (MBP immunostaining) in affected WM ([4]; listed as CF101): significantly increased
axon volume / axonal projections (NF160 immunostaining) ([4]; listed as Pic): Veh vs Pic, n.s.=not significant
myelin volume / markers of myelination (MBP immunostaining) in affected WM ([4]; listed as Pic): Veh vs Pic, *p<0.05
Cux1 expression, Cux1+/NeuN (%) in Layer VI above infarct lesion [5]: significantly ameliorated
Satb2 expression, Satb2+/NeuN (%) in Layer VI near infarct lesion [5]: significantly ameliorated
Satb2 expression, Satb2+/NeuN (%) in Layer VI near infarct lesion ([5]; listed as CD101): VaD_Veh vs VaD_CD101, *p<0.05
Cux1 expression, Cux1+/NeuN (%) in Layer VI above infarct lesion ([5]; listed as CF101): significantly ameliorated
Satb2 expression, Satb2+/NeuN (%) in Layer VI near infarct lesion ([5]; listed as CF101): significantly ameliorated
Cux1 expression, Cux1+/NeuN (%) in Layer VI above infarct lesion ([5]; listed as Pic): Con_Veh vs VaD_Pic, n.s.=not significant
Satb2 expression, Satb2+/NeuN (%) in Layer VI near infarct lesion ([5]; listed as Pic): Con_Veh vs VaD_Pic, n.s.=not significant
grid walking task, motor deficit [6]: successfully rescued the motor deficit
grid walking task, motor deficit ([6]; listed as CF101): successfully rescued the motor deficit
grid walking task, motor deficit ([6]; listed as Pic): VaD_Veh vs VaD_Pic, ##p<0.01
VaD lesion size [7]: may reduce lesion size
blood brain barrier (BBB) leakage (immunoreactivity of mouse IgG) [7]: significantly reduced blood brain barrier (BBB) leakage
blood brain barrier (BBB) leakage (immunoreactivity of mouse IgG) ([7]; listed as CF101): reduced blood brain barrier (BBB) leakage
blood brain barrier (BBB) leakage (immunoreactivity of mouse IgG) ([7]; listed as Pic): Veh vs Pic, *p<0.05
c-Fos expression in HPC CA2/3, c-Fos+ cell numbers per mm^3 [8]: restored c-Fos expression
c-Fos expression in PFC anterior cingulate (AC), c-Fos/NeuN (%) [8]: restored c-Fos expression
c-Fos expression in HPC CA2/3, c-Fos+ cell numbers per mm^3 ([8]; listed as CF101): restored c-Fos expression
c-Fos expression in PFC anterior cingulate (AC), c-Fos/NeuN (%) ([8]; listed as CF101): restored c-Fos expression
c-Fos expression in HPC CA2/3, c-Fos+ cell numbers per mm^3 ([8]; listed as Pic): Con_Veh vs VaD_Pic, n.s.=not significant
c-Fos expression in PFC anterior cingulate (AC), c-Fos/NeuN (%) ([8]; listed as Pic): Con_Veh vs VaD_Pic, n.s.=not significant
